# Measured values taken from patent publication US20180002319A1, “MACROCYCLIC PICOLINAMIDE COMPOUNDS WITH FUNGICIDAL ACTIVITY” (DOW AGROSCIENCES LLC, priority 2014, published 2018).
# System: Puccinia triticina
# Assay: Wheat Brown Rust (PUCCRT) fungicidal activity
# Type: in vivo
# Conditions: 24 h, High Volume application, 100 ppm, 1 day protectant, read-out: PUCCRT disease control, 1DP (1 Day Protectant)
# Outline: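 Disease severity (0–100%) on first leaves compared with untreated plants gives percent control. Plants (wheat var. Yuma) received spore inoculum before or after run-off spraying with compound in acetone/Triton X-100 water, held overnight at 22° C, 100% RH, then in a 24° C greenhouse.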
row,Structure (SMILES),pest or weed control at 100 ppm [%]
1,CCCCO[C@H]1CCOC[C@H](NC(=O)c2nccc(OC)c2O)C(=O)O[C@@H](C)[C@@H]1OC(=O)c1ccccc1 [Compound 84],> 80
2,CCCCO[C@H]1CCOC[C@H](NC(=O)c2nccc(OC)c2O)C(=O)O[C@@H](C)[C@@H]1OC(=O)C1CC1 [Compound 85],> 80
3,COc1ccnc(C(=O)N[C@H]2COCC[C@H](OCC(C)C)[C@@H](OCC(C)C)[C@H](C)OC2=O)c1O [Compound 86],> 80
4,CCCCO[C@H]1CCOC[C@H](NC(=O)c2nccc(OC)c2O)C(=O)O[C@@H](C)[C@@H]1OCC(C)C [Compound 87],> 80
5,COc1ccnc(C(=O)N[C@H]2CCCC[C@H](OCc3ccccc3)[C@@H](OCc3ccccc3)[C@H](C)OC2=O)c1O [Compound 88],> 80
6,COc1ccnc(C(=O)N[C@H]2CCCC[C@H](OCC(C)C)[C@@H](OCC(C)C)[C@H](C)OC2=O)c1O [Compound 89],< 80
7,COc1ccnc(C(=O)N[C@H]2CCCC[C@H](Oc3ccccc3)[C@@H](OCC(C)C)[C@H](C)OC2=O)c1O [Compound 90],> 80
8,COc1ccnc(C(=O)N[C@H]2CCCC[C@H](OC)[C@@H](Oc3ccccc3)[C@H](C)OC2=O)c1O [Compound 91],> 80
9,COc1ccnc(C(=O)N[C@H]2CCCC[C@H](OC)[C@@H](OCC(C)C)[C@H](C)OC2=O)c1O [Compound 92],> 80
10,COc1ccnc(C(=O)N[C@H]2CCCC[C@H](OCC(C)C)[C@@H](Oc3ccccc3)[C@H](C)OC2=O)c1O [Compound 93],> 80
11,CCCCCO[C@H]1[C@H](C)OC(=O)[C@@H](NC(=O)c2nccc(OC)c2O)CCCC[C@@H]1OC(=O)c1ccccc1 [Compound 94],> 80
12,CCCCCO[C@H]1[C@H](C)OC(=O)[C@@H](NC(=O)c2nccc(OC)c2O)CCCC[C@@H]1Oc1ccccc1 [Compound 96],> 80
13,CCCO[C@H]1[C@H](C)OC(=O)[C@@H](NC(=O)c2nccc(OC)c2O)CCCC[C@@H]1Oc1ccccc1 [Compound 97],> 80
14,COc1ccnc(C(=O)N[C@H]2CCCC[C@H](Oc3ccccc3)[C@@H](Oc3ccccc3)[C@H](C)OC2=O)c1O [Compound 98],> 80
15,CCCO[C@H]1CCCC[C@H](NC(=O)c2nccc(OC)c2O)C(=O)O[C@@H](C)[C@@H]1Oc1ccccc1 [Compound 100],> 80

# Same assay, conditions: 72 h, High Volume application, 100 ppm, 3 day curative, read-out: PUCCRT disease control, 3DC (3 Day Curative)
row,Structure (SMILES),pest or weed control at 100 ppm [%]
1,CCCCO[C@H]1CCOC[C@H](NC(=O)c2nccc(OC)c2O)C(=O)O[C@@H](C)[C@@H]1OC(=O)c1ccccc1 [Compound 84],> 80
2,CCCCO[C@H]1CCOC[C@H](NC(=O)c2nccc(OC)c2O)C(=O)O[C@@H](C)[C@@H]1OC(=O)C1CC1 [Compound 85],> 80
3,COc1ccnc(C(=O)N[C@H]2COCC[C@H](OCC(C)C)[C@@H](OCC(C)C)[C@H](C)OC2=O)c1O [Compound 86],< 80
4,CCCCO[C@H]1CCOC[C@H](NC(=O)c2nccc(OC)c2O)C(=O)O[C@@H](C)[C@@H]1OCC(C)C [Compound 87],> 80
5,COc1ccnc(C(=O)N[C@H]2CCCC[C@H](Oc3ccccc3)[C@@H](OCC(C)C)[C@H](C)OC2=O)c1O [Compound 90],< 80
6,COc1ccnc(C(=O)N[C@H]2CCCC[C@H](OC)[C@@H](Oc3ccccc3)[C@H](C)OC2=O)c1O [Compound 91],> 80
7,COc1ccnc(C(=O)N[C@H]2CCCC[C@H](OC)[C@@H](OCC(C)C)[C@H](C)OC2=O)c1O [Compound 92],> 80
8,COc1ccnc(C(=O)N[C@H]2CCCC[C@H](OCC(C)C)[C@@H](Oc3ccccc3)[C@H](C)OC2=O)c1O [Compound 93],> 80
9,CCCCCO[C@H]1[C@H](C)OC(=O)[C@@H](NC(=O)c2nccc(OC)c2O)CCCC[C@@H]1OC(=O)c1ccccc1 [Compound 94],< 80
10,CCCCCO[C@H]1[C@H](C)OC(=O)[C@@H](NC(=O)c2nccc(OC)c2O)CCCC[C@@H]1Oc1ccccc1 [Compound 96],< 80
11,CCCO[C@H]1[C@H](C)OC(=O)[C@@H](NC(=O)c2nccc(OC)c2O)CCCC[C@@H]1Oc1ccccc1 [Compound 97],> 80
12,COc1ccnc(C(=O)N[C@H]2CCCC[C@H](Oc3ccccc3)[C@@H](Oc3ccccc3)[C@H](C)OC2=O)c1O [Compound 98],< 80
13,CCCO[C@H]1CCCC[C@H](NC(=O)c2nccc(OC)c2O)C(=O)O[C@@H](C)[C@@H]1Oc1ccccc1 [Compound 100],> 80

# System: Zymoseptoria tritici
# Assay: Leaf Blotch of Wheat (SEPTTR) fungicidal activity
# Type: in vivo
# Conditions: 24 h, High Volume application, 100 ppm, wheat leaf blotch, 1 day protectant, read-out: SEPTTR disease control, 1DP (1 Day Protectant)
# Outline: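 Wheat seedlings (Yuma, first leaf emerged) were sprayed to run-off with compound in acetone/water containing Triton X-100 and inoculated with Z. tritici spores before or after treatment. Percent disease control comes from 0–100% severity on treated versus untreated plants.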
row,Structure (SMILES),pest or weed control at 100 ppm [%]
1,CCCCO[C@H]1CCOC[C@H](NC(=O)c2nccc(OC)c2O)C(=O)O[C@@H](C)[C@@H]1OC(=O)c1ccccc1 [Compound 84],< 80
2,CCCCO[C@H]1CCOC[C@H](NC(=O)c2nccc(OC)c2O)C(=O)O[C@@H](C)[C@@H]1OC(=O)C1CC1 [Compound 85],< 80
3,COc1ccnc(C(=O)N[C@H]2COCC[C@H](OCC(C)C)[C@@H](OCC(C)C)[C@H](C)OC2=O)c1O [Compound 86],< 80
4,CCCCO[C@H]1CCOC[C@H](NC(=O)c2nccc(OC)c2O)C(=O)O[C@@H](C)[C@@H]1OCC(C)C [Compound 87],> 80
5,COc1ccnc(C(=O)N[C@H]2CCCC[C@H](OCc3ccccc3)[C@@H](OCc3ccccc3)[C@H](C)OC2=O)c1O [Compound 88],> 80
6,COc1ccnc(C(=O)N[C@H]2CCCC[C@H](OCC(C)C)[C@@H](OCC(C)C)[C@H](C)OC2=O)c1O [Compound 89],< 80
7,COc1ccnc(C(=O)N[C@H]2CCCC[C@H](Oc3ccccc3)[C@@H](OCC(C)C)[C@H](C)OC2=O)c1O [Compound 90],> 80
8,COc1ccnc(C(=O)N[C@H]2CCCC[C@H](OC)[C@@H](Oc3ccccc3)[C@H](C)OC2=O)c1O [Compound 91],> 80
9,COc1ccnc(C(=O)N[C@H]2CCCC[C@H](OC)[C@@H](OCC(C)C)[C@H](C)OC2=O)c1O [Compound 92],> 80
10,COc1ccnc(C(=O)N[C@H]2CCCC[C@H](OCC(C)C)[C@@H](Oc3ccccc3)[C@H](C)OC2=O)c1O [Compound 93],> 80
11,CCCCCO[C@H]1[C@H](C)OC(=O)[C@@H](NC(=O)c2nccc(OC)c2O)CCCC[C@@H]1OC(=O)c1ccccc1 [Compound 94],> 80
12,CCCCCO[C@H]1[C@H](C)OC(=O)[C@@H](NC(=O)c2nccc(OC)c2O)CCCC[C@@H]1Oc1ccccc1 [Compound 96],< 80
13,CCCO[C@H]1[C@H](C)OC(=O)[C@@H](NC(=O)c2nccc(OC)c2O)CCCC[C@@H]1Oc1ccccc1 [Compound 97],> 80
14,COc1ccnc(C(=O)N[C@H]2CCCC[C@H](Oc3ccccc3)[C@@H](Oc3ccccc3)[C@H](C)OC2=O)c1O [Compound 98],> 80
15,CCCO[C@H]1CCCC[C@H](NC(=O)c2nccc(OC)c2O)C(=O)O[C@@H](C)[C@@H]1Oc1ccccc1 [Compound 100],> 80

# Same assay, conditions: 72 h, High Volume application, 100 ppm, wheat leaf blotch, 3 day curative, read-out: SEPTTR disease control, 3DC (3 Day Curative)
row,Structure (SMILES),pest or weed control at 100 ppm [%]
1,CCCCO[C@H]1CCOC[C@H](NC(=O)c2nccc(OC)c2O)C(=O)O[C@@H](C)[C@@H]1OC(=O)c1ccccc1 [Compound 84],> 80
2,CCCCO[C@H]1CCOC[C@H](NC(=O)c2nccc(OC)c2O)C(=O)O[C@@H](C)[C@@H]1OC(=O)C1CC1 [Compound 85],> 80
3,COc1ccnc(C(=O)N[C@H]2COCC[C@H](OCC(C)C)[C@@H](OCC(C)C)[C@H](C)OC2=O)c1O [Compound 86],> 80
4,CCCCO[C@H]1CCOC[C@H](NC(=O)c2nccc(OC)c2O)C(=O)O[C@@H](C)[C@@H]1OCC(C)C [Compound 87],< 80
5,COc1ccnc(C(=O)N[C@H]2CCCC[C@H](OCc3ccccc3)[C@@H](OCc3ccccc3)[C@H](C)OC2=O)c1O [Compound 88],< 80
6,COc1ccnc(C(=O)N[C@H]2CCCC[C@H](OCC(C)C)[C@@H](OCC(C)C)[C@H](C)OC2=O)c1O [Compound 89],< 80
7,COc1ccnc(C(=O)N[C@H]2CCCC[C@H](Oc3ccccc3)[C@@H](OCC(C)C)[C@H](C)OC2=O)c1O [Compound 90],< 80
8,COc1ccnc(C(=O)N[C@H]2CCCC[C@H](OC)[C@@H](Oc3ccccc3)[C@H](C)OC2=O)c1O [Compound 91],> 80
9,COc1ccnc(C(=O)N[C@H]2CCCC[C@H](OC)[C@@H](OCC(C)C)[C@H](C)OC2=O)c1O [Compound 92],> 80
10,COc1ccnc(C(=O)N[C@H]2CCCC[C@H](OCC(C)C)[C@@H](Oc3ccccc3)[C@H](C)OC2=O)c1O [Compound 93],< 80
11,CCCCCO[C@H]1[C@H](C)OC(=O)[C@@H](NC(=O)c2nccc(OC)c2O)CCCC[C@@H]1OC(=O)c1ccccc1 [Compound 94],< 80
12,CCCCCO[C@H]1[C@H](C)OC(=O)[C@@H](NC(=O)c2nccc(OC)c2O)CCCC[C@@H]1Oc1ccccc1 [Compound 96],< 80
13,CCCO[C@H]1[C@H](C)OC(=O)[C@@H](NC(=O)c2nccc(OC)c2O)CCCC[C@@H]1Oc1ccccc1 [Compound 97],< 80
14,COc1ccnc(C(=O)N[C@H]2CCCC[C@H](Oc3ccccc3)[C@@H](Oc3ccccc3)[C@H](C)OC2=O)c1O [Compound 98],< 80
15,CCCO[C@H]1CCCC[C@H](NC(=O)c2nccc(OC)c2O)C(=O)O[C@@H](C)[C@@H]1Oc1ccccc1 [Compound 100],> 80
